Assay results published in the NIST ThermoML archive (doi:10.1016/j.fluid.2017.06.019).

Settings: Coaxial cylinder method

CCC [propane]
thermal conductivity [W/m/K]
Settings	364.65 K	365.72 K
3306 kPa, Gas	–	0.03402
3306 kPa, Liquid	–	0.03402
3818 kPa, Gas	0.04192	–
3819 kPa, Gas	0.04192	–
3820 kPa, Gas	0.04192	–
3826 kPa, Gas	0.04799	–
3827 kPa, Gas	0.05041	–
3828 kPa, Gas	0.05375	–
3829 kPa, Gas	0.05683	–
3830 kPa, Gas	0.05989	–
3831 kPa, Gas	0.06347	–
3832 kPa, Gas	0.0673	–
3833 kPa, Gas	0.07157	–
3834 kPa, Gas	0.0754	–
3835 kPa, Gas	0.07969	–
3836 kPa, Gas	0.08397	–
3837 kPa, Gas	0.08791	–
3838 kPa, Gas	0.09202	–
3839 kPa, Gas	0.09605	–
3840 kPa, Gas	0.1002	–
3841 kPa, Gas	0.1044	–
3842 kPa, Gas	0.1088	–
3843 kPa, Gas	0.1131	–
3844 kPa, Gas	0.1173	–
3845 kPa, Gas	0.1218	–
3846 kPa, Gas	0.1263	–
3847 kPa, Gas	0.1307	–
3848 kPa, Gas	0.135	–
3849 kPa, Gas	0.14	–
3850 kPa, Gas	0.1445	–
3851 kPa, Gas	0.1491	–
3852 kPa, Gas	0.1538	–
3853 kPa, Gas	0.1584	–
3854 kPa, Gas	0.1635	–
3855 kPa, Gas	0.1693	–
3856 kPa, Gas	0.1732	–
3857 kPa, Gas	0.1782	–
3858 kPa, Gas	0.1831	–
3859 kPa, Gas	0.1881	–
3860 kPa, Gas	0.1933	–
3861 kPa, Gas	0.1983	–
3862 kPa, Gas	0.2036	–
3863 kPa, Gas	0.2089	–
3864 kPa, Gas	0.2141	–
3865 kPa, Gas	0.2194	–
3866 kPa, Gas	0.2249	–
3867 kPa, Gas	0.2303	–
3868 kPa, Gas	0.2361	–
3869 kPa, Gas	0.2404	–
3870 kPa, Liquid	0.2611	–
3871 kPa, Liquid	0.2548	–
3872 kPa, Liquid	0.249	–
3873 kPa, Liquid	0.2424	–
3874 kPa, Liquid	0.2366	–
3875 kPa, Liquid	0.2306	–
3876 kPa, Liquid	0.2246	–
3877 kPa, Liquid	0.2189	–
3878 kPa, Liquid	0.2127	–
3879 kPa, Liquid	0.2068	–
3880 kPa, Liquid	0.2008	–
3881 kPa, Liquid	0.1952	–
3882 kPa, Gas	–	0.04279
3882 kPa, Liquid	0.1898	–
3883 kPa, Gas	–	0.04289
3883 kPa, Liquid	0.1838	–
3884 kPa, Gas	–	0.04575
3884 kPa, Liquid	0.1778	–
3885 kPa, Gas	–	0.04607
3885 kPa, Liquid	0.1728	–
3886 kPa, Liquid	0.1668	–
3887 kPa, Liquid	0.1613	–
3888 kPa, Liquid	0.1556	–
3889 kPa, Liquid	0.1503	–
3890 kPa, Gas	–	0.05157
3890 kPa, Liquid	0.1444	–
3891 kPa, Gas	–	0.05307
3891 kPa, Liquid	0.1391	–
3892 kPa, Gas	–	0.05526
3892 kPa, Liquid	0.1337	–
3893 kPa, Gas	–	0.0573
3893 kPa, Liquid	0.1279	–
3894 kPa, Gas	–	0.05933
3894 kPa, Liquid	0.1224	–
3895 kPa, Gas	–	0.06131
3895 kPa, Liquid	0.117	–
3896 kPa, Gas	–	0.06342
3896 kPa, Liquid	0.1115	–
3897 kPa, Gas	–	0.06568
3897 kPa, Liquid	0.1061	–
3898 kPa, Gas	–	0.06813
3898 kPa, Liquid	0.1008	–
3899 kPa, Gas	–	0.07049
3899 kPa, Liquid	0.09527	–
3900 kPa, Gas	–	0.07276
3900 kPa, Liquid	0.08987	–
3901 kPa, Gas	–	0.07497
3901 kPa, Liquid	0.08442	–
3902 kPa, Gas	–	0.07801
3902 kPa, Liquid	0.07906	–
3903 kPa, Gas	–	0.0811
3903 kPa, Liquid	0.07632	–
3904 kPa, Gas	–	0.08423
3904 kPa, Liquid	0.0735	–
3905 kPa, Gas	–	0.08726
3905 kPa, Liquid	0.07087	–
3906 kPa, Gas	–	0.09038
3906 kPa, Liquid	0.06861	–
3907 kPa, Gas	–	0.09365
3907 kPa, Liquid	0.06633	–
3908 kPa, Gas	–	0.09697
3908 kPa, Liquid	0.06424	–
3909 kPa, Gas	–	0.1001
3909 kPa, Liquid	0.06367	–
3910 kPa, Gas	–	0.1033
3910 kPa, Liquid	0.06367	–
3911 kPa, Gas	–	0.1068
3911 kPa, Liquid	0.06367	–
3912 kPa, Gas	–	0.1099
3912 kPa, Liquid	0.06367	–
3913 kPa, Gas	–	0.1132
3913 kPa, Liquid	0.06367	–
3914 kPa, Gas	–	0.1164
3914 kPa, Liquid	0.06367	–
3915 kPa, Gas	–	0.1201
3915 kPa, Liquid	0.0637	–
3916 kPa, Gas	–	0.1234
3917 kPa, Gas	–	0.1273
3918 kPa, Gas	–	0.1307
3919 kPa, Gas	–	0.1341
3920 kPa, Gas	–	0.1379
3920 kPa, Liquid	0.06366	–
3921 kPa, Gas	–	0.1413
3922 kPa, Gas	–	0.1454
3923 kPa, Gas	–	0.149
3924 kPa, Gas	–	0.1527
3925 kPa, Gas	–	0.1565
3925 kPa, Liquid	0.06366	–
3926 kPa, Gas	–	0.1605
3927 kPa, Gas	–	0.1644
3928 kPa, Gas	–	0.1684
3929 kPa, Gas	–	0.1724
3930 kPa, Gas	–	0.1763
3930 kPa, Liquid	0.06362	–
3931 kPa, Gas	–	0.1804
3932 kPa, Gas	–	0.1846
3933 kPa, Gas	–	0.1886
3934 kPa, Gas	–	0.1932
3935 kPa, Gas	–	0.1972
3935 kPa, Liquid	0.06364	–
3936 kPa, Gas	–	0.2015
3937 kPa, Gas	–	0.2059
3938 kPa, Gas	–	0.2104
3939 kPa, Gas	–	0.2148
3940 kPa, Gas	–	0.2193
3940 kPa, Liquid	0.06364	–
3941 kPa, Gas	–	0.2241
3942 kPa, Gas	–	0.229
3943 kPa, Gas	–	0.2336
3944 kPa, Gas	–	0.2401
3945 kPa, Liquid	0.06362	0.2612
3946 kPa, Liquid	–	0.2502
3947 kPa, Liquid	–	0.2373
3948 kPa, Liquid	–	0.224
3949 kPa, Liquid	–	0.2125
3950 kPa, Liquid	0.06362	0.2005
3951 kPa, Liquid	–	0.1903
3952 kPa, Liquid	–	0.1805
3953 kPa, Liquid	–	0.1711
3954 kPa, Liquid	–	0.1622
3955 kPa, Liquid	0.06362	0.1544
3956 kPa, Liquid	–	0.1467
3957 kPa, Liquid	–	0.1394
3958 kPa, Liquid	–	0.1335
3959 kPa, Liquid	–	0.1273
3960 kPa, Liquid	0.06362	0.1217
3961 kPa, Liquid	–	0.1164
3962 kPa, Liquid	–	0.1139
3963 kPa, Liquid	–	0.1116
3964 kPa, Liquid	–	0.1094
3965 kPa, Liquid	0.06362	0.1072
3966 kPa, Liquid	–	0.1052
3967 kPa, Liquid	–	0.1032
3968 kPa, Liquid	–	0.1013
3969 kPa, Liquid	–	0.09939
3970 kPa, Liquid	0.06362	0.09778
3971 kPa, Liquid	–	0.09605
3972 kPa, Liquid	–	0.09456
3973 kPa, Liquid	–	0.09289
3974 kPa, Liquid	–	0.09145
3975 kPa, Liquid	0.0636	0.09005
3976 kPa, Liquid	–	0.08869
3977 kPa, Liquid	–	0.08737
3980 kPa, Liquid	0.0636	–
4000 kPa, Liquid	0.06363	–
4020 kPa, Liquid	0.06367	–
4040 kPa, Liquid	0.06367	–
4060 kPa, Liquid	0.06371	–
4080 kPa, Liquid	0.06377	–
4100 kPa, Liquid	0.06381	–
4120 kPa, Liquid	0.06385	–
4140 kPa, Liquid	0.06391	–
4160 kPa, Liquid	0.06398	–
4180 kPa, Liquid	0.06404	–
4200 kPa, Liquid	0.06412	–
4220 kPa, Liquid	0.06418	–
4240 kPa, Liquid	0.06424	–
4260 kPa, Liquid	0.06432	–
4280 kPa, Liquid	0.06439	–
4300 kPa, Liquid	0.06445	–
4349 kPa, Liquid	0.06465	–
4364 kPa, Liquid	0.06469	–
4372 kPa, Liquid	0.06473	–
4380 kPa, Liquid	0.06475	–
4388 kPa, Liquid	0.06475	–
